# Data as given in patent US9993562B2, “Metallic gold cluster molecules as therapeutic agents for arthritic animals” (priority 2016, dated 2018).
# No end group written: not given here.
# Experiments:
# Type in all cases: in vivo, DBA/1 male mice
# [1] = Effect of treatment on body weight of type II collagen immunized mice; conditions: mean ± sd
# Procedure: DBA/1 male mice weighted 20-22 grams were purchased from Hua-Fu-Kang Biotechnology Limited, Beijing, China. Type II collagen and Complete Freund's Adjuvant were purchased from Chondrex Inc., Redmond, Wash., USA. […] Gold25(peptide)9 cluster molecules were prepared according to Example 1.
# (§1) Type II collagen was dissolved in 0.1 mM acetic acid solution and was emulsified with equal volume of Complete Freund's Adjuvant to make a 1.0 mg/ml Type II collagen emulsion. After one week of resting and environment adjustment, DBA/1 male mice were divided into groups, each group was consisted of 10 mice. Each animal was injected intradermally at the 2-3 cm base of the tail an emulsion of 100 μg Type II collagen. On day 21, a second booster dose of 100 μg Type II collagen emulsion was injected. Negative control group of mice are injected with equal amount of 0.9% Sodium Chloride solution.
# (§2) On day 22, groups of mice were given different drugs once each day for 28 days (4 weeks) until day 49 (end of week 7). The groups of mice were examined for inflammation and status.
# [2] = tested on: Collagen induced arthritis in mice; test: Visual inflammation scoring of paws (0-4 per limb, four limbs summed), collagen induced arthritis
# Description: Collagen induced arthritis in mice has been the standard animal model for studying rheumatoid arthritis and other polyarthritis. DBA/1 male mice weighted 20-22 grams were purchased from Hua-Fu-Kang Biotechnology Limited, Beijing, China. Type II collagen and Complete Freund's Adjuvant were purchased from Chondrex Inc., Redmond, Wash., USA. Auranofin was purchased from Sigma, USA and Dexamethasone was purchased from Jin-Yao Amino Acid Company, Tianjing, China. Gold25(peptide)9 cluster molecules were prepared according to Example 1.
# as §1, §2
# The inflammation was assessed by means of a visual scoring method where mouse individual paws were graded from 0-4 as follows:
# 0 score: no redness and no swelling;
# 1 score: mild erythema at the toes;
# 2 scores: toe joints and paw swelling;
# 3 scores: swelling below ankle
# 4 scores: all ankle and paw swelling. • All four limbs of each mouse were examined and scored, and scores of all four limbs were added together for each mouse.
# [3] = tested on: Collagen induced arthritis in mice; test: Pictures of hind limb swelling (FIG. 6), collagen induced arthritis; conditions: end of 7 weeks of the experiment
# Procedure: as §1, §2
# [4] = tested on: Collagen induced arthritis in mice; test: 3D CT scan of paw joints, bone density changes (FIG. 7); conditions: end of week 7
# Procedure: as §1, §2
# [5] = tested on: Collagen induced arthritis in mice; test: Hematoxylin and eosin histology of hind limb joint sections (FIG. 8); conditions: H&E
# Procedure: as §1, §2
# To evaluate the soft tissue damages around the joint area, the joint tissues of the hind limbs of each mouse groups were then fixed, embedded, sectioned into slides and hematoxylin and eosin stained to examine the histology and histopathology changes at the joints.
# [6] = tested on: IL-6; test: Amount of IL-6 at the arthritic joints (FIG. 10)
# Procedure: as §2
# (§3) In reference to FIGS. 10 and 11, the amount of pro-inflammation cytokine factors IL-6 and IL-1β were measured at the arthritic joints of the variously treated mice groups.
# [7] = tested on: IL-1β; test: Amount of IL-1β at the arthritic joints (FIG. 11)
# Procedure: as §2, §3
# [8] = tested on: TNF; test: Amount of TNF at the arthritic joints
# Procedure: as §2
# In reference to […], the amount of pro-inflammation cytokine TNF was measured at the arthritic joints of the variously treated mice groups. […] The observed significant differences in effectiveness between orally administering and intraperitoneally administering methods may result from the fact that the amount of gold can be more and directly up-taken through phagocytosis by the macrophage cells peritoneum. This effect is also largely consistent with the prior observation that gold25(peptide)9 cluster molecules are capable of induce apoptosis in various cells, and its binding ability of cysteine-rich pro-inflammation cytokines helps with its anti-inflammation effect.
compound,measurement,setting,value
Au25 (peptide)9: metallic 25 gold atom cluster binding 9 peptides of SEQ ID NO: 1 Cys-Cys-Tyr-Gly-Gly-Pro-Lys-Lys-Lys-Arg-Lys-Pro-Gly (CCYGGPKKKRKPG; cysteine pairing not given here; also: 9 peptides bound to Au25 gold cluster),Mice Body Weight,"[1]; 0 w (before dosing, which starts day 22), group i.g. 50 mg/kg",21.60 ± 1.31 g
same,Mice Body Weight,"[1]; 0 w (before dosing, which starts day 22), group i.p. 5 mg/kg",22 ± 1.27 g
same,Mice Body Weight,"[1]; 1 wk (before dosing), group i.g. 50 mg/kg",23.05 ± 1.04 g
same,Mice Body Weight,"[1]; 1 wk (before dosing), group i.p. 5 mg/kg",23.25 ± 1.21 g
same,Mice Body Weight,"[1]; 2 wk (before dosing), group i.g. 50 mg/kg",23.40 ± 1.33 g
same,Mice Body Weight,"[1]; 2 wk (before dosing), group i.p. 5 mg/kg",24.13 ± 0.99 g
same,Mice Body Weight,"[1]; 3 wk (before dosing), group i.g. 50 mg/kg",24.10 ± 1.50 g
same,Mice Body Weight,"[1]; 3 wk (before dosing), group i.p. 5 mg/kg",24.00 ± 0.85 g
same,Mice Body Weight,"[1]; 4 wk, i.g. 50 mg/kg once daily from day 22",22.66 ± 1.64 g
same,Mice Body Weight,"[1]; 4 wk, i.p. 5 mg/kg once daily from day 22",23.30 ± 0.84 g
same,Mice Body Weight,"[1]; 5 wk, i.g. 50 mg/kg once daily from day 22",22.35 ± 1.73 g
same,Mice Body Weight,"[1]; 5 wk, i.p. 5 mg/kg once daily from day 22",23.01 ± 0.70 g
same,Mice Body Weight,"[1]; 6 wk, i.g. 50 mg/kg once daily from day 22",23.23 ± 1.71 g
same,Mice Body Weight,"[1]; 6 wk, i.p. 5 mg/kg once daily from day 22",22.63 ± 1.71 g
same,Mice Body Weight,"[1]; 7 wk, i.g. 50 mg/kg once daily from day 22",23.43 ± 1.47 g
same,Mice Body Weight,"[1]; 7 wk, i.p. 5 mg/kg once daily from day 22",22.47 ± 1.43 g
same,"Inflammation visual score (sum of four limbs, each 0-4)","[2]; 35 d, i.g. 50 mg/kg once daily from day 22",6.13 ± 3.09
same,"Inflammation visual score (sum of four limbs, each 0-4)","[2]; 35 d, i.p. 5 mg/kg once daily from day 22",8.00 ± 2.78
same,"Inflammation visual score (sum of four limbs, each 0-4)","[2]; 38 d, i.g. 50 mg/kg once daily from day 22",7.00 ± 3.07
same,"Inflammation visual score (sum of four limbs, each 0-4)","[2]; 38 d, i.p. 5 mg/kg once daily from day 22",7.77 ± 4.49
same,"Inflammation visual score (sum of four limbs, each 0-4)","[2]; 42 d, i.g. 50 mg/kg once daily from day 22",8.88 ± 3.04
same,"Inflammation visual score (sum of four limbs, each 0-4)","[2]; 42 d, i.p. 5 mg/kg once daily from day 22",7.00 ± 3.20
same,"Inflammation visual score (sum of four limbs, each 0-4)","[2]; 45 d, i.g. 50 mg/kg once daily from day 22",8.88 ± 3.52
same,"Inflammation visual score (sum of four limbs, each 0-4)","[2]; 45 d, i.p. 5 mg/kg once daily from day 22",6.38 ± 2.33
same,"Inflammation visual score (sum of four limbs, each 0-4)","[2]; 49 d, i.g. 50 mg/kg once daily from day 22",9.13 ± 0.48
same,"Inflammation visual score (sum of four limbs, each 0-4)","[2]; 49 d, i.p. 5 mg/kg once daily from day 22",5.88 ± 3.40
same,Swelling and joint deformity (in words),"[2]; i.p. 5 mg/kg body weight, 3′ week of treatment",significantly improved
same,Swelling scores (in words),"[2]; oral 50 mg/kg body weight, by the end of 4 weeks of treatment","better scores than Auranofin, but still developed comparable inflammation"
same,Hind limb swelling in pictures (FIG. 6),[3]; i.p. 5 mg/kg daily,obvious reduced swelling and improvement in deformation
same,Hind limb swelling in pictures (FIG. 6),[3]; oral 50 mg/kg daily,still obvious swelling and slightly better condition
same,"Bone density, deformation and osteolysis of paw joints, 3D CT",[4]; i.p. 5 mg/kg daily,"significant improvement on the bone density comparing the non-treated arthritis mice, and no obvious osteolysis and only slight bone deformation"
same,"Bone deformation and osteolysis of paw joints, 3D CT",[4]; oral 50 mg/kg daily,still developed bone deformation and osteolysis
same,"Joint histopathology (bone erosion, soft tissue damage, synovial macrophage infiltration)",[5]; i.p. 5 mg/kg daily,the bone erosion is significantly less and no apparent number of synovial macrophage cells infiltration
same,"Joint histopathology (bone erosion, soft tissue damage, synovial macrophage infiltration)",[5]; oral 50 mg/kg daily,reduced soft tissue damages and less macrophage infiltration
same,Amount of IL-6 at the arthritic joints,"[6]; group 4, oral 50 mg/kg daily",reduced these two cytokines to the similar level as that of Dex
same,Amount of IL-6 at the arthritic joints,"[6]; group 5, i.p. 5 mg/kg daily",reduced these two cytokines to the similar level as that of Dex
same,Amount of IL-1β at the arthritic joints,"[7]; group 4, oral 50 mg/kg daily",reduced these two cytokines to the similar level as that of Dex
same,Amount of IL-1β at the arthritic joints,"[7]; group 5, i.p. 5 mg/kg daily",reduced these two cytokines to the similar level as that of Dex
same,Amount of TNF at the arthritic joints,"[8]; group 4, oral 50 mg/kg daily",also reduced the amount of TNF
same,Amount of TNF at the arthritic joints,"[8]; group 5, i.p. 5 mg/kg daily",dramatically reduced the TNF generation
"C[C@@H]1C[C@H]2[C@@H]3CCC4=CC(=O)C=C[C@]4(C)[C@@]3(F)[C@@H](O)C[C@]2(C)[C@@]1(O)C(=O)CO [DEX, Dexamethasone, reference compound]",Mice Body Weight,"[1]; 2 wk (before dosing), group i.g. 0.5 mg/kg",23.20 ± 1.06 g
same,Mice Body Weight,"[1]; 3 wk (before dosing), group i.g. 0.5 mg/kg",23.50 ± 1.02 g
same,"Inflammation visual score (sum of four limbs, each 0-4)","[2]; 35 d, i.g. 0.5 mg/kg once daily from day 22",0.22 ± 0.44
same,"Inflammation visual score (sum of four limbs, each 0-4)","[2]; 38 d, i.g. 0.5 mg/kg once daily from day 22",0.33 ± 0.71
same,"Inflammation visual score (sum of four limbs, each 0-4)","[2]; 42 d, i.g. 0.5 mg/kg once daily from day 22",1.22 ± 1.30
same,"Inflammation visual score (sum of four limbs, each 0-4)","[2]; 45 d, i.g. 0.5 mg/kg once daily from day 22",1.33 ± 1.00
same,"Inflammation visual score (sum of four limbs, each 0-4)","[2]; 49 d, i.g. 0.5 mg/kg once daily from day 22",1.22 ± 0.97
